Experimental data: ChEMBL document CHEMBL1933061, “Discovery of a novel class of aldol-derived 1,2,3-triazoles: potent and selective inhibitors of human cytochrome P450 19A1 (aromatase)” (Bioorg Med Chem Lett, 2012); call rule not given here
Each block holds one compound with its values, some of them ahead of it.

Assays:
Cytochrome P450 3A4 = Cytochrome P450 3A4 (Homo sapiens, UniProt P08684); assay: Inhibition of CYP3A4 at 10 uM; format: ADME
Cytochrome P450 1A1 = target: T1, Cytochrome P450 1A1 (Homo sapiens, UniProt P04798); assay: Inhibition of CYP1A1; format: ADME
T1 sequence (P04798 whole entry): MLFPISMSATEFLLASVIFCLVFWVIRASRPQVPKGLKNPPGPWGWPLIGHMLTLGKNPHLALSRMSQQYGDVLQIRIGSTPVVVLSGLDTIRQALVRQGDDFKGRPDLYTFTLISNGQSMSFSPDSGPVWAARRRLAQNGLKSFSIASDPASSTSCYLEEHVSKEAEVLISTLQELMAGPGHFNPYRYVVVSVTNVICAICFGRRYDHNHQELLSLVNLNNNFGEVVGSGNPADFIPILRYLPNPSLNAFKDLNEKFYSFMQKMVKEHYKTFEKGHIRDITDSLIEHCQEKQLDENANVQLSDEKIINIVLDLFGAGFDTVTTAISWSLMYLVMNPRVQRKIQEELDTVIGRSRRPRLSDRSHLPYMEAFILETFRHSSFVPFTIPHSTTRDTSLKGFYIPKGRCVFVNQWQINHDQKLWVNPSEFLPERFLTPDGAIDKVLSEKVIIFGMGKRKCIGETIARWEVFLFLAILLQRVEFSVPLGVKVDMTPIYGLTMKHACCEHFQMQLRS

Aromatase [1] = target: T2, Aromatase (Homo sapiens, UniProt P11511); assay: Inhibition of human recombinant aromatase assessed as conversion of O-dibenzylfluorescein benzyl ester substrate to fluorescein byproduct by fluorometric assay; conditions: for inhibition (INH): human
T2 sequence (P11511 whole entry): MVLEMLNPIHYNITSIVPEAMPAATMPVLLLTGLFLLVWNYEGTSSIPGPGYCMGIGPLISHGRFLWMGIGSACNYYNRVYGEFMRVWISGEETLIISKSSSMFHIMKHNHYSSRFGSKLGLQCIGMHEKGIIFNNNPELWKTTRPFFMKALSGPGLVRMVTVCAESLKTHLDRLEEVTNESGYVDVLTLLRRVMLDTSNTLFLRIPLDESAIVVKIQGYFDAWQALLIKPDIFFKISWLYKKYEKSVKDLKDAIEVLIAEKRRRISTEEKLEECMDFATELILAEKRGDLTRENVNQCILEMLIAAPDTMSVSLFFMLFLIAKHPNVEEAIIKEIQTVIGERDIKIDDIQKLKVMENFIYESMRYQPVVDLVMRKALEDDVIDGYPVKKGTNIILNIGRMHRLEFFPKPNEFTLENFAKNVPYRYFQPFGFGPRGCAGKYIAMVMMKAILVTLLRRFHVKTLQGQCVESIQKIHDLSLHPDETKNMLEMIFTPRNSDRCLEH

Aromatase [2] = target: T2, Aromatase; assay: Inhibition of human recombinant aromatase assessed as conversion of O-dibenzylfluorescein benzyl ester substrate to fluorescein byproduct at 10 uM by fluorometric assay
Cytochrome P450 2D6 = Cytochrome P450 2D6 (Homo sapiens, UniProt P10635); assay: Inhibition of CYP2D6; format: ADME
Chain of Cytochrome P450 2D6 (P10635 whole entry): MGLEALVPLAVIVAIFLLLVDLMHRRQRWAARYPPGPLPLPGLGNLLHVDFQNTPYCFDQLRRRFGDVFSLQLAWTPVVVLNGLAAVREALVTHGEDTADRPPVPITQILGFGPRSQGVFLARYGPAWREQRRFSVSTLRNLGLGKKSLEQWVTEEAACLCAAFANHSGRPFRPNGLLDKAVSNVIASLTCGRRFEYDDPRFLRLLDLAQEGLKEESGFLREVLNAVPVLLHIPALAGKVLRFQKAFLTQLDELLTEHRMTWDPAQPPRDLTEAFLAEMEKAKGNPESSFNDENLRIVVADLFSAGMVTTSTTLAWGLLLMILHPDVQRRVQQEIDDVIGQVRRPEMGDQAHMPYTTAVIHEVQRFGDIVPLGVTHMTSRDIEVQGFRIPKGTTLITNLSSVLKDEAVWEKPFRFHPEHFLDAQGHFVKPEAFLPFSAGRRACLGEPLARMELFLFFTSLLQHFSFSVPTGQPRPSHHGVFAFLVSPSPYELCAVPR

Chain of Cytochrome P450 3A4 (P08684 whole entry): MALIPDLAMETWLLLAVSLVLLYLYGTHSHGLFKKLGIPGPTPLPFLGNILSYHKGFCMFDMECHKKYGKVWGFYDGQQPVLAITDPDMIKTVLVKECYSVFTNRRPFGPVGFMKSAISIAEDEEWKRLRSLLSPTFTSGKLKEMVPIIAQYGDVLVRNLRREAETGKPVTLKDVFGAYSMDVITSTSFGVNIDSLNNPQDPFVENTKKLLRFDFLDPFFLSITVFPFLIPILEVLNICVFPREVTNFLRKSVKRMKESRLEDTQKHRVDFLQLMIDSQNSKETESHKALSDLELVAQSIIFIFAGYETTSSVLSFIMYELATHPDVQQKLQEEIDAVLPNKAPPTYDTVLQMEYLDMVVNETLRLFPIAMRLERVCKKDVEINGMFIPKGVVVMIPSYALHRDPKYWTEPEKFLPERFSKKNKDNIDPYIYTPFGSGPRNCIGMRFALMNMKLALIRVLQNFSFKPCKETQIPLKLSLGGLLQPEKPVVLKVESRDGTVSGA

SMILES: O=C(c1ccccc1)C(Cn1ccnn1)c1ccccc1 (stereo unspecified)
inhibition (INH) (Cytochrome P450 3A4): Not Active | Ki (Cytochrome P450 1A1): 5.37 µM | Ki (Aromatase [1]): 1 µM

SMILES: COCO[C@@H](c1ccccc1)[C@@H](CN=[N+]=[N-])c1ccccc1 (relative stereo)
inhibition (INH) (Aromatase [2]): Not Active | inhibition (INH) (Aromatase [1]): Not Active

SMILES: COCO[C@@H](c1ccccc1)[C@@H](Cn1cc([Si](C)(C)C)nn1)c1ccccc1 (relative stereo)
inhibition (INH) (Aromatase [2]): Not Active | inhibition (INH) (Aromatase [1]): Not Active

SMILES: O[C@@H](c1ccccc1)[C@@H](Cn1ccnn1)c1ccccc1 (relative stereo)
inhibition (INH) (Aromatase [2]): Not Active

SMILES: O=C(O[C@@H](c1ccccc1)[C@@H](Cn1ccnn1)c1ccccc1)c1ccccc1 (relative stereo)
inhibition (INH) (Cytochrome P450 3A4): Not Active | Ki (Cytochrome P450 1A1): 30.9 µM | Ki (Aromatase [1]): 0.1 µM

SMILES: CC(=O)O[C@@H](c1ccccc1)[C@@H](Cn1ccnn1)c1ccccc1 (relative stereo)
inhibition (INH) (Cytochrome P450 3A4): Not Active | Ki (Aromatase [1]): 0.06 µM

SMILES: COCO[C@H](c1ccccc1)[C@@H](Cn1cc([Si](C)(C)C)nn1)c1ccccc1 (relative stereo)
inhibition (INH) (Aromatase [2]): Not Active

SMILES: O[C@H](c1ccccc1)[C@@H](Cn1ccnn1)c1ccccc1 (relative stereo)
Ki (Cytochrome P450 2D6): 708 µM | inhibition (INH) (Cytochrome P450 3A4): Not Active | Ki (Aromatase [1]): 0.05 µM

SMILES: CC(=O)O[C@H](c1ccccc1)[C@@H](Cn1ccnn1)c1ccccc1 (relative stereo)
inhibition (INH) (Cytochrome P450 3A4): Not Active | Ki (Aromatase [1]): 0.25 µM

The next lines start with the values.

Ki (Cytochrome P450 2D6): 1120 µM | Ki (Aromatase [1]): 0.79 µM
SMILES: COCO[C@@H](c1ccccc1)[C@@H](Cn1ccnn1)c1ccccc1 (relative stereo)

inhibition (INH) (Aromatase [2]): Not Active
SMILES: COCO[C@@H](c1ccccc1)[C@@H](CN1CCOCC1)c1ccccc1 (relative stereo)

inhibition (INH) (Aromatase [2]): Not Active
SMILES: COCO[C@@H](c1ccccc1)[C@@H](CN)c1ccccc1 (relative stereo)

inhibition (INH) (Aromatase [2]): Not Active
SMILES: COCO[C@H](c1ccccc1)[C@@H](CN=[N+]=[N-])c1ccccc1 (relative stereo)

inhibition (INH) (Cytochrome P450 3A4): Not Active | Ki (Aromatase [1]): 0.08 µM
SMILES: COCO[C@H](c1ccccc1)[C@@H](Cn1ccnn1)c1ccccc1 (relative stereo)
